Test results published in paper PMC12922749 (Science Advances, 2026).
Where two headings read alike, the source gives them in different places. Values belong to the molecule of their own block, whether it stands above or below them.

How the values were obtained:
Test in all cases: SPR
Assay type in all cases: binding
[1] = target: Nur77
[2] = target: Nur77; remark: listed apart in the source
[3] = target: Nur77; remark: listed apart in the source

Kd [1]: 28.9 µM
SMILES: CCCCCCCC(=O)c1c(O)cc(O)cc1CC(=O)OCC [Cytosporone B]

Kd [2]: 1440 nM
SMILES: CCCCC/C=C\C[C@@H](O)/C=C/C=C\C/C=C\CCCC(=O)O [12R-HETE]

Kd [3]: 13.9 µM
SMILES: CCCCC/C=C\C[C@H](O)/C=C/C=C\C/C=C\CCCC(=O)O [12S-HETE]
